Assays:
T cells = assay: TBM and BBM mediated T cell proliferation (Example 20); assay type: cell-based, human; settings: in the presence of OCI-LY-19 and Toledo cells
Description: Briefly, OCI-LY-19, Karpas422, and Toledo target cells stably expressing firefly luciferase were plated in a 96 well plate in T Cell Media (TCM) (RPMI-1640, ThermoFisher Scientific, Cat #11875-085), 10% FBS (Seradigm, Cat #1500-500), 1% L-Glutamine (Thermo Fisher Scientific, Cat #25830-081), 1% Non Essential Amino Acids (Thermo Fisher Scientific, Cat #11140-050), 1% Pen/Strep (Thermo Fisher Scientific, Cat #15070063), 1% HEPES (Thermo Fisher Scientific, Cat #15630080), Sodium Pyruvate (Thermo Fisher Scientific, Cat #11360-070), 0.1% Beta-mercaptoethanol (Thermo Fisher Scientific, Cat #21985-023)]. PBMCs previously isolated and cryopreserved from 2 Leukopak donors were thawed and Pan T cells were isolated (as described earlier). Isolated T cells were labelled with 5 μM Cell Trace Violet (CTV) (Thermo Fisher Scientific, Cat #C34557) following the manufacturer's protocol and were co-cultured with target cells at an E:T ratio of 1:3. A dilution series of CD3med TSP1, CD3hi TSP1, CD3hi BSP1, CD3hi TSP1C, and blinatumomab ranging from 2.5 nM-0.0006 nM was added to cells and the plates were incubated in a 5% CO2, 37° C. incubator for 96 hrs. […]

Karpas422 target cells = assay: Re-challenge RTCC assay, Karpas 422; assay type: cell-based, human; settings: last re-challenge
Description: OCI-LY-19 and Karpas422 target cells stably expressing firefly luciferase were plated in a Costar 6 well plate in T Cell Media (TCM). PBMCs previously isolated and cryopreserved from 2 Leukopak donors were thawed and Pan T cells were isolated (as described earlier). […] The plates were incubated for 4 days for OCI-LY-19 and 5 days for Karpas 422 cells. At the end of incubation, the killing of target cells was determined using the luminescence signal. The absolute T cell counts from each antibody treated condition was also determined. For the next round of rechallenge, it was ensured that the killing of target cells was equivalent across various antibody conditions. […] Additionally, a dose titration RTCC at a E:T of 1:1 and a concentration range of 2 nM-0.000001 nM was set-up using T cells from the different antibody treated conditions with a 4 day incubation used for each cell line. The killing of target cells was determined using the luminescence signal to generate dose response curves. At the end of the challenge, the above process was repeated once more for Karpas 422 and twice more for OCI-LY-19 cells.

**Q.** Which “T cell proliferation, potency compared between constructs” value (T cells) does the source give for “blinatumomab: bispecific T cell engager, or BiTE, that binds to both CD19 and CD3 but lacks an Fc domain [reference compound]” here?
**A.** most potent T cell proliferation

**Q.** What about the maximum lysis (Karpas422 target cells) of the same substance?
**A.** higher maximum lysis than CD3hi TSP1

From US12221481B2, “CD19 binding molecules and uses thereof” (Novartis AG, priority 2019, dated 2025)
